Columns and labels:
Format in all cases: in vivo
[1] = tested on: common ragweed (Ambrosia artemisiifolia L., AML); experiment: Post-emerge test, common ragweed; conditions: 250 g ai/ha, 14 days after application, rating scale 0-100 (0 no damage, 100 complete death)
Method in brief: (§1)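 Emerged seedlings, usually at 2-3 leaves after 8-21 days' growth in sandy loam, were treated with 8-1000 g ai/ha. Treatment was an acetone spray at 187 l/ha containing 0.25% v/v non-ionic surfactant. Assessment at 14 days used a 0 (no damage) to 100 (total death) scale.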

[2] = tested on: soybean (Glycine max L., var. Pella 86, SOY); experiment: Post-emerge test, crop damage soybean; conditions: post-emerge, 250 g ai/ha, 14 days after application, rating scale 0-100 (0 no damage, 100 complete death)
Method in brief: as §1

[3] = tested on: soybean (Glycine max L., var. Pella 86, SOY); experiment: Pre-emerge test, crop damage soybean; conditions: pre-emerge, 250 g ai/ha, 14 days after application, rating scale 0-100 (0 no damage, 100 complete death)
Method in brief: (§2)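 Using a track sprayer with flat fan nozzle, acetone solutions were applied at 8–1000 g ai/ha to sandy loam pots sown one day before. Plant injury was rated visually 0–100 after 14 days.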

[4] = tested on: upland rice (Oryza sp., var.Tebonnet, RICE); experiment: Pre-emerge test, crop damage upland rice; conditions: pre-emerge, 250 g ai/ha, 14 days after application, rating scale 0-100 (0 no damage, 100 complete death)
Method in brief: as §2

[5] = tested on: velvetleaf (Abutilon theophrasti, ABT); experiment: Pre-emerge test, velvetleaf; conditions: 250 g ai/ha, 14 days after application, rating scale 0-100 (0 no damage, 100 complete death)
Method in brief: as §2

[6] = tested on: ivyleaf morningglory (Ipomoea hederacea, IPH); experiment: Pre-emerge test, ivyleaf morningglory; conditions: 250 g ai/ha, 14 days after application, rating scale 0-100 (0 no damage, 100 complete death)
Method in brief: as §2

[7] = tested on: redroot pigweed (Amaranthus retroflexus, AMR); experiment: Pre-emerge test, redroot pigweed; conditions: 250 g ai/ha, 14 days after application, rating scale 0-100 (0 no damage, 100 complete death)
Method in brief: as §2

[8] = tested on: upland rice (Oryza sp., var.Tebonnet, RICE); experiment: Post-emerge test, crop damage upland rice; conditions: post-emerge, 250 g ai/ha, 14 days after application, rating scale 0-100 (0 no damage, 100 complete death)
Method in brief: as §1

[9] = tested on: lambsquarters (Chenopodium album, CHA); experiment: Pre-emerge test, lambsquarters; conditions: 250 g ai/ha, 14 days after application, rating scale 0-100 (0 no damage, 100 complete death)
Method in brief: as §2

[10] = tested on: green foxtail (Setaria viridis, SEV); experiment: Post-emerge test, green foxtail; conditions: 250 g ai/ha, 14 days after application, rating scale 0-100 (0 no damage, 100 complete death)
Method in brief: as §1

[11] = tested on: wheat (Triticum aestivum); experiment: Post-emerge test, crop damage wheat; conditions: post-emerge, 250 g ai/ha, 14 days after application, rating scale 0-100 (0 no damage, 100 complete death)
Method in brief: as §1

[12] = tested on: cocklebur (Xanthium strumariunt, XAS); experiment: Pre-emerge test, cocklebur; conditions: 250 g ai/ha, 14 days after application, rating scale 0-100 (0 no damage, 100 complete death)
Method in brief: as §2

[13] = tested on: johnsongrass (Sorghum halepense, SOH); experiment: Pre-emerge test, johnsongrass; conditions: 250 g ai/ha, 14 days after application, rating scale 0-100 (0 no damage, 100 complete death)
Method in brief: as §2

[14] = tested on: redroot pigweed (Amaranthus retroflexus, AMR); experiment: Post-emerge test, redroot pigweed; conditions: 250 g ai/ha, 14 days after application, rating scale 0-100 (0 no damage, 100 complete death)
Method in brief: as §1

[15] = tested on: green foxtail (Setaria viridis, SEV); experiment: Pre-emerge test, green foxtail; conditions: 250 g ai/ha, 14 days after application, rating scale 0-100 (0 no damage, 100 complete death)
Method in brief: as §2

[16] = tested on: field corn (Zea mays L., var. Dekalb 535, CORN); experiment: Pre-emerge test, crop damage field corn; conditions: pre-emerge, 250 g ai/ha, 14 days after application, rating scale 0-100 (0 no damage, 100 complete death)
Method in brief: as §2

[17] = tested on: velvetleaf (Abutilon theophrasti, ABT); experiment: Post-emerge test, velvetleaf; conditions: 250 g ai/ha, 14 days after application, rating scale 0-100 (0 no damage, 100 complete death)
Method in brief: as §1

[18] = tested on: common ragweed (Ambrosia artemisiifolia L., AML); experiment: Pre-emerge test, common ragweed; conditions: 250 g ai/ha, 14 days after application, rating scale 0-100 (0 no damage, 100 complete death)
Method in brief: as §2

[19] = tested on: wheat (Triticum aestivum); experiment: Pre-emerge test, crop damage wheat; conditions: pre-emerge, 250 g ai/ha, 14 days after application, rating scale 0-100 (0 no damage, 100 complete death)
Method in brief: as §2

[20] = tested on: johnsongrass (Sorghum halepense, SOH); experiment: Post-emerge test, johnsongrass; conditions: 250 g ai/ha, 14 days after application, rating scale 0-100 (0 no damage, 100 complete death)
Method in brief: as §1

[21] = tested on: barnyardgrass (Echinachloa crus-galli, ECC); experiment: Post-emerge test, barnyardgrass; conditions: 250 g ai/ha, 14 days after application, rating scale 0-100 (0 no damage, 100 complete death)
Method in brief: as §1

[22] = tested on: sicklepod (Cassia obtusifolia, CAO); experiment: Pre-emerge test, sicklepod; conditions: 250 g ai/ha, 14 days after application, rating scale 0-100 (0 no damage, 100 complete death)
Method in brief: as §2

[23] = tested on: sicklepod (Cassia obtusifolia, CAO); experiment: Post-emerge test, sicklepod; conditions: 250 g ai/ha, 14 days after application, rating scale 0-100 (0 no damage, 100 complete death)
Method in brief: as §1

[24] = tested on: large crabgrass (Digitaria sanguinalis, DIS); experiment: Pre-emerge test, large crabgrass; conditions: 250 g ai/ha, 14 days after application, rating scale 0-100 (0 no damage, 100 complete death)
Method in brief: as §2

[25] = tested on: field corn (Zea mays L., var. Dekalb 535, CORN); experiment: Post-emerge test, crop damage field corn; conditions: post-emerge, 250 g ai/ha, 14 days after application, rating scale 0-100 (0 no damage, 100 complete death)
Method in brief: as §1

[26] = tested on: cocklebur (Xanthium strumariunt, XAS); experiment: Post-emerge test, cocklebur; conditions: 250 g ai/ha, 14 days after application, rating scale 0-100 (0 no damage, 100 complete death)
Method in brief: as §1

[27] = tested on: large crabgrass (Digitaria sanguinalis, DIS); experiment: Post-emerge test, large crabgrass; conditions: 250 g ai/ha, 14 days after application, rating scale 0-100 (0 no damage, 100 complete death)
Method in brief: as §1

[28] = tested on: lambsquarters (Chenopodium album, CHA); experiment: Post-emerge test, lambsquarters; conditions: 250 g ai/ha, 14 days after application, rating scale 0-100 (0 no damage, 100 complete death)
Method in brief: as §1

[29] = tested on: ivyleaf morningglory (Ipomoea hederacea, IPH); experiment: Post-emerge test, ivyleaf morningglory; conditions: 250 g ai/ha, 14 days after application, rating scale 0-100 (0 no damage, 100 complete death)
Method in brief: as §1

[30] = tested on: barnyardgrass (Echinachloa crus-galli, ECC); experiment: Pre-emerge test, barnyardgrass; conditions: 250 g ai/ha, 14 days after application, rating scale 0-100 (0 no damage, 100 complete death)
Method in brief: as §2

Compound	Post-emerge Herbicidal Activity AML (phytotoxicity rating) [1]	Post-emerge crop damage SOY (phytotoxicity rating) [2]	Pre-emerge crop damage SOY (phytotoxicity rating) [3]	Pre-emerge crop damage RICE (phytotoxicity rating) [4]	Pre-emerge Herbicidal Activity ABT (phytotoxicity rating) [5]	Pre-emerge Herbicidal Activity IPH (phytotoxicity rating) [6]	Pre-emerge Herbicidal Activity AMR (phytotoxicity rating) [7]	Post-emerge crop damage RICE (phytotoxicity rating) [8]	Pre-emerge Herbicidal Activity CHA (phytotoxicity rating) [9]	Post-emerge Herbicidal Activity SEV (phytotoxicity rating) [10]	Post-emerge crop damage WHEAT (phytotoxicity rating) [11]	Pre-emerge Herbicidal Activity XAS (phytotoxicity rating) [12]	Pre-emerge Herbicidal Activity SOH (phytotoxicity rating) [13]	Post-emerge Herbicidal Activity AMR (phytotoxicity rating) [14]	Pre-emerge Herbicidal Activity SEV (phytotoxicity rating) [15]	Pre-emerge crop damage CORN (phytotoxicity rating) [16]	Post-emerge Herbicidal Activity ABT (phytotoxicity rating) [17]	Pre-emerge Herbicidal Activity AML (phytotoxicity rating) [18]	Pre-emerge crop damage WHEAT (phytotoxicity rating) [19]	Post-emerge Herbicidal Activity SOH (phytotoxicity rating) [20]	also measured
CC1C(=O)Nc2c(-c3ncc(C(F)(F)F)cc3Cl)c(F)cc3c2N1C(=O)CO3 (stereo not drawn) [1-64]	95	100	99	95	100	100	100	0	100	100	15	100	100	100	100	100	100	100	90	85	Post-emerge Herbicidal Activity ECC (phytotoxicity rating) [21]: 100; Pre-emerge Herbicidal Activity CAO (phytotoxicity rating) [22]: 100; Post-emerge Herbicidal Activity CAO (phytotoxicity rating) [23]: 85; Pre-emerge Herbicidal Activity DIS (phytotoxicity rating) [24]: 100; Post-emerge crop damage CORN (phytotoxicity rating) [25]: 5; Post-emerge Herbicidal Activity XAS (phytotoxicity rating) [26]: 100; Post-emerge Herbicidal Activity DIS (phytotoxicity rating) [27]: 40; Post-emerge Herbicidal Activity CHA (phytotoxicity rating) [28]: 100; Post-emerge Herbicidal Activity IPH (phytotoxicity rating) [29]: 100; Pre-emerge Herbicidal Activity ECC (phytotoxicity rating) [30]: 100
CCC1C(=O)Nc2c(-c3ncc(C(F)(F)F)cc3Cl)c(F)cc3c2N1C(=O)CO3 (stereo not drawn) [1-66]	80	100	35	85	100	100	100	100	100	98	30	50	100	100	100	95	100	100	50	75	Post-emerge Herbicidal Activity ECC (phytotoxicity rating) [21]: 100; Pre-emerge Herbicidal Activity CAO (phytotoxicity rating) [22]: 98; Post-emerge Herbicidal Activity CAO (phytotoxicity rating) [23]: 75; Pre-emerge Herbicidal Activity DIS (phytotoxicity rating) [24]: 100; Post-emerge crop damage CORN (phytotoxicity rating) [25]: 10; Post-emerge Herbicidal Activity XAS (phytotoxicity rating) [26]: 100; Post-emerge Herbicidal Activity DIS (phytotoxicity rating) [27]: 95; Post-emerge Herbicidal Activity CHA (phytotoxicity rating) [28]: 100; Post-emerge Herbicidal Activity IPH (phytotoxicity rating) [29]: 100; Pre-emerge Herbicidal Activity ECC (phytotoxicity rating) [30]: 100
O=C1Nc2c(-c3ncc(C(F)(F)F)cc3Cl)c(F)cc3c2N(C(=O)CO3)C1c1ccccc1 (stereo not drawn) [1-68]	40	10	5	0	99	40	100	0	100	0	0	30	99	100	100	5	80	65	30	0	Post-emerge Herbicidal Activity ECC (phytotoxicity rating) [21]: 0; Pre-emerge Herbicidal Activity CAO (phytotoxicity rating) [22]: 40; Post-emerge Herbicidal Activity CAO (phytotoxicity rating) [23]: 0; Pre-emerge Herbicidal Activity DIS (phytotoxicity rating) [24]: 100; Post-emerge crop damage CORN (phytotoxicity rating) [25]: 10; Post-emerge Herbicidal Activity XAS (phytotoxicity rating) [26]: 60; Post-emerge Herbicidal Activity DIS (phytotoxicity rating) [27]: 0; Post-emerge Herbicidal Activity CHA (phytotoxicity rating) [28]: 100; Post-emerge Herbicidal Activity IPH (phytotoxicity rating) [29]: 60; Pre-emerge Herbicidal Activity ECC (phytotoxicity rating) [30]: 98
Cc1nn(-c2c(F)cc3c4c2NC(=O)CN4C(=O)CO3)c(=O)n1C(F)F [1-73]	50	60	60	100	100	100	100	75	100	50	0	65	100	30	100	100	65	80	90	0	Post-emerge Herbicidal Activity ECC (phytotoxicity rating) [21]: 0; Pre-emerge Herbicidal Activity CAO (phytotoxicity rating) [22]: 90; Post-emerge Herbicidal Activity CAO (phytotoxicity rating) [23]: 0; Pre-emerge Herbicidal Activity DIS (phytotoxicity rating) [24]: 100; Post-emerge crop damage CORN (phytotoxicity rating) [25]: 0; Post-emerge Herbicidal Activity XAS (phytotoxicity rating) [26]: 40; Post-emerge Herbicidal Activity DIS (phytotoxicity rating) [27]: 0; Post-emerge Herbicidal Activity CHA (phytotoxicity rating) [28]: 90; Post-emerge Herbicidal Activity IPH (phytotoxicity rating) [29]: 55; Pre-emerge Herbicidal Activity ECC (phytotoxicity rating) [30]: 100
